The text below walks through data of patent publication US7589089B2, “Inhibitors for GlyT-1” (Hoffmann-La Roche Inc., priority 2006, dated 2009).

In general, IC50 refers to the midpoint of a concentration-inhibition curve. Lower therefore signals greater potency in that assay.

The target of this test is T1, mGlyT-1b (Mus musculus, UniProt P28571).
T1 construct: host or cells: Flp-in-CHO
T1 sequence (P28571 1-651 isoform P28571-2): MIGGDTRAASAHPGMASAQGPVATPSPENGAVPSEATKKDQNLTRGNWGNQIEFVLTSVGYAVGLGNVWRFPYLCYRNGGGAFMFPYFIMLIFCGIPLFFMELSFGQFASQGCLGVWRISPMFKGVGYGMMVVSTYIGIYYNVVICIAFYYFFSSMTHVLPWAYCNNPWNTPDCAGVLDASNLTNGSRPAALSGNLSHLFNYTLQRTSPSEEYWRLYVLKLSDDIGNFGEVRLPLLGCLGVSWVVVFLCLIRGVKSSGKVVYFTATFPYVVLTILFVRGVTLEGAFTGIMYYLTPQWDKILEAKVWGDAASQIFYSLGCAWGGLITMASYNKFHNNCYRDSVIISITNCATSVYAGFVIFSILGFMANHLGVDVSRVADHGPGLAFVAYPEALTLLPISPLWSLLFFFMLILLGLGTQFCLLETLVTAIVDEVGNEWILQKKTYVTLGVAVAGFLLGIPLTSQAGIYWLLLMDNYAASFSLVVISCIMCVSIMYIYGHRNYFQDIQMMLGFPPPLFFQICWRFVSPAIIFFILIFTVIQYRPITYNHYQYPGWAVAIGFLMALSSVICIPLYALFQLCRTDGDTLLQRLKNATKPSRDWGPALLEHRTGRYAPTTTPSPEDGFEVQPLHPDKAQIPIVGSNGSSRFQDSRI
Briefly: Glycine Uptake Inhibition Assay (mGlyT-1b). In kind it is cell-based. The procedure: DMEM complete medium: Nutrient mixture F-12 (Gibco Life-technologies), fetal bovine serum (FBS) 5%, (Gibco life technologies), Penicillin/Streptomycin 1% (Gibco life technologies), Hygromycin 0.6 mg/ml (Gibco life technologies), Glutamine 1 mM Gibco life technologies)
Uptake buffer (UB): 150 mM NaCl, 10 mM Hepes-Tris, pH 7.4, 1 mM CaCl2, 2.5 mM KCl, 2.5 mM MgSO4, 10 mM (+) D-glucose.
Flp-in™-CHO (Invitrogen Cat n° R758-07) cells stably transfected with mGlyT1b cDNA.
Glycine Uptake Inhibition Assay (mGlyT-1b)
On day 1 mammalian cells, (Flp-in™-CHO), transfected with mGlyT-1b cDNA, were plated at the density of 40,000 cells/well in complete F-12 medium, without hygromycin in 96-well culture plates. On day 2, the medium was aspirated and the cells were washed twice with uptake buffer (UB). The cells were then incubated for 20 min at 22° C. with either (i) no potential competitor, (ii) 10 mM non-radioactive glycine, (iii) a concentration of a potential inhibitor. A range of concentrations of the potential inhibitor was used to generate data for calculating the concentration of inhibitor resulting in 50% of the effect (e.g. IC50, the concentration of the competitor inhibiting glycine uptake of 50%). A solution was then immediately added containing [^3H]-glycine 60 nM (11-16 Ci/mmol) and 25 μM non-radioactive glycine. The plates were incubated with gentle shaking and the reaction was stopped by aspiration of the mixture and washing (three times) with ice-cold UB. The cells were lysed with scintillation liquid, shaken 3 hours and the radioactivity in the cells was counted using a scintillation counter.
As for `O=C(CN(Cc1ccccc1Cl)C(=O)c1ccc(F)cc1)Nc1ccc(F)c(Cl)c1` [Example 76, N-(2-Chloro-benzyl)-N-[(3-chloro-4-fluoro-phenylcarbamoyl)-methyl]-4-fluoro-benzamide], the IC50 stood at 159 nM. Consider `N#Cc1ccc(C(=O)N(CC(=O)Nc2cccc(F)c2)Cc2ccccc2Cl)cc1` [Example 62, N-(2-Chloro-benzyl)-4-cyano-N-[(3-fluoro-phenylcarbamoyl)-methyl]-benzamide], for which the IC50 turned out to be 357 nM. On to `N#Cc1ccc(C(=O)N(CC(=O)Nc2ccc(F)c(Cl)c2)Cc2cccc(F)c2F)cc1` [Example 85, N-[(3-Chloro-4-fluoro-phenylcarbamoyl)-methyl]-4-cyano-N-(2,3-difluoro-benzyl)-benzamide], for which half-maximal inhibition (IC50) was put at 123 nM. For `O=C(CN(Cc1cccc(F)c1F)C(=O)c1ccc(OC(F)(F)F)cc1)Nc1ccc(F)c(Cl)c1` [Example 83, N-[(3-Chloro-4-fluoro-phenylcarbamoyl)-methyl]-N-(2,3-difluoro-benzyl)-4-trifluoromethoxy-benzamide] the value was 78 nM; for `COc1ccc(C(=O)N(CC(=O)Nc2cccc(Cl)c2)Cc2cccc(Cl)c2)cc1` [Example 14, N-(3-Chloro-benzyl)-N-[(3-chloro-phenylcarbamoyl)-methyl]-4-methoxy-benzamide], 24 nM; for `COc1ccc(C(=O)N(CC(=O)Nc2ccc(Cl)c(Cl)c2)c2cccc(Cl)c2)cc1` [Example 117, N-(3-Chloro-phenyl)-N-[(3,4-dichloro-phenylcarbamoyl)-methyl]-4-methoxy-benzamide], 210 nM. For `O=C(CN(Cc1c(F)cccc1F)C(=O)c1ccc(F)cc1)Nc1ccc(F)c(Cl)c1` [Example 78, N-[(3-Chloro-4-fluoro-phenylcarbamoyl)-methyl]-N-(2,6-difluoro-benzyl)-4-fluoro-benzamide] the value was 282 nM; for `Cc1ccccc1CN(CC(=O)Nc1cccc(Cl)c1)C(=O)c1ccc(Cl)cc1` [Example 104, 4-Chloro-N-[(3-chloro-phenylcarbamoyl)-methyl]-N-(2-methyl-benzyl)-benzamide], 209 nM.

On to `O=C(CN(C(=O)c1cc2ccccc2s1)c1ccccc1)Nc1ccc(Cl)c(Cl)c1` [Example 113, Benzo[b]thiophene-2-carboxylic acid [(3,4-dichloro-phenylcarbamoyl)-methyl]-phenyl-amide], for which the IC50 is 150 nM. Under `COc1ccccc1CN(CC(=O)Nc1cccc(Cl)c1)C(=O)c1ccc(Cl)cc1` [Example 102, 4-Chloro-N-[(3-chloro-phenylcarbamoyl)-methyl]-N-(2-methoxy-benzyl)-benzamide] stands 60 nM; under `O=C(CN(Cc1c(F)cccc1F)C(=O)c1cc2ccccc2s1)Nc1ccc(F)c(Cl)c1` [Example 69, Benzo[b]thiophene-2-carboxylic acid [(3-chloro-4-fluoro-phenylcarbamoyl)-methyl]-(2,6-difluoro-benzyl)-amide], 90 nM; under `O=C(CN(Cc1ccccc1)C(=O)c1ccc(F)cc1)Nc1cccc(Cl)c1` [Example 15, N-Benzyl-N-[(3-chloro-phenylcarbamoyl)-methyl]-4-fluoro-benzamide], 312 nM.

The compound `O=C(CN(Cc1cccc(F)c1F)C(=O)c1ccc(F)cc1)Nc1ccc(F)c(Cl)c1` [Example 84, N-[(3-Chloro-4-fluoro-phenylcarbamoyl)-methyl]-N-(2,3-difluoro-benzyl)-4-fluoro-benzamide] came in with an IC50 of 178 nM. For `CN(C)c1ccc(C(=O)N(CC(=O)Nc2ccc(Cl)c(Cl)c2)c2ccccc2)cc1` [Example 116, N-[(3,4-Dichloro-phenylcarbamoyl)-methyl]-4-dimethylamino-N-phenyl-benzamide] the value was 191 nM; for `O=C(CN(Cc1ccccc1F)C(=O)c1ccc(Cl)cc1)Nc1cccc(Cl)c1` [Example 9, 4-Chloro-N-[(3-chloro-phenylcarbamoyl)-methyl]-N-(2-fluoro-benzyl)-benzamide], 74 nM; for `N#Cc1ccc(C(=O)N(CC(=O)Nc2ccc(F)c(Cl)c2)Cc2c(F)cccc2F)cc1` [Example 88, N-[(3-Chloro-4-fluoro-phenylcarbamoyl)-methyl]-4-cyano-N-(2,6-difluoro-benzyl)-benzamide], 199 nM. For `COc1ccc(C(=O)N(CC(=O)Nc2cccc(Cl)c2)Cc2c(F)cccc2F)cc1` [Example 11, N-[(3-Chloro-phenylcarbamoyl)-methyl]-N-(2,6-difluoro-benzyl)-4-methoxy-benzamide] the value was 100 nM; for `O=C(CN(Cc1ccccc1Cl)C(=O)c1ccc(Cl)cc1)Nc1cccc(Cl)c1` [Example 106, 4-Chloro-N-(2-chloro-benzyl)-N-[(3-chloro-phenylcarbamoyl)-methyl]-benzamide], 25 nM. For `N#Cc1ccc(C(=O)N(CC(=O)Nc2cccc(C(F)(F)F)c2)Cc2ccccc2Cl)cc1` [Example 43, N-(2-Chloro-benzyl)-4-cyano-N-[(3-trifluoromethyl-phenylcarbamoyl)-methyl]-benzamide] the value was 339 nM; for `O=C(CN(Cc1cc(F)cc(F)c1)C(=O)c1ccc(Cl)cc1)Nc1cccc(Cl)c1` [Example 3, 4-Chloro-N-[(3-chloro-phenylcarbamoyl)-methyl]-N-(3,5-difluoro-benzyl)-benzamide], 184 nM; for `O=C(CN(Cc1ccccc1Cl)C(=O)c1ccc(OC(F)(F)F)cc1)Nc1cccc(C(F)(F)F)c1` [Example 54, #N!-(2-Chloro-benzyl)-4-trifluoromethoxy-#N!-[(3-trifluoromethyl-phenylcarbamoyl)-methyl]-benzamide], 196 nM. In turn, `O=C(CN(Cc1ccco1)C(=O)c1ccc(Cl)cc1)Nc1cccc(Cl)c1` [Example 107, 4-Chloro-N-[(3-chloro-phenylcarbamoyl)-methyl]-N-furan-2-ylmethyl-benzamide] showed an IC50 of 199 nM. Under `O=C(CN(Cc1ccccc1Cl)C(=O)c1cccc(F)c1)Nc1cccc(C(F)(F)F)c1` [Example 52, N-(2-Chloro-benzyl)-3-fluoro-N-[(3-trifluoromethyl-phenylcarbamoyl)-methyl]-benzamide] stands 153 nM; under `COc1ccc(C(=O)N(CC(=O)Nc2ccc(Cl)c(Cl)c2)c2ccccc2)cc1` [Example 41, N-[(3,4-Dichloro-phenylcarbamoyl)-methyl]-4-methoxy-N-phenyl-benzamide], 276 nM; under `COc1ccc(C(=O)N(CC(=O)Nc2ccc(Cl)c(Cl)c2)Cc2cccs2)cc1` [Example 18, N-[(3,4-Dichloro-phenylcarbamoyl)-methyl]-4-methoxy-N-thiophen-2-ylmethyl-benzamide], 257 nM.

As for `COc1ccc(C(=O)N(CC(=O)Nc2cccc(Cl)c2)Cc2c(Cl)cccc2Cl)cc1` [Example 19, N-[(3-Chloro-phenylcarbamoyl)-methyl]-N-(2,6-dichloro-benzyl)-4-methoxy-benzamide], the IC50 was 164 nM. Regarding `O=C(CN(Cc1cc(F)cc(F)c1)C(=O)c1ccc(Cl)cc1)Nc1ccc(F)c(Cl)c1` [Example 89, 4-Chloro-N-[(3-chloro-4-fluoro-phenylcarbamoyl)-methyl]-N-(3,5-difluoro-benzyl)-benzamide], half-maximal inhibition (IC50) was put at 306 nM.
